Source: patent publication US11161862B2, “Phosphonium-ion tethered tetracycline drugs for treatment of cancer” (Oxford University Innovation Limited, priority 2017, dated 2021)
Structures can show the parent of a compound that is named as a salt.

System: MDA-231 cancer cells
Experiment: Inhibition of proliferation assay: cell confluence (IncuCyte live cell imaging)
Type: cell-based
Conditions: MDA-231 cells, IncuCyte imaging every 3 h over 4-5 d, relative confluence normalised to time zero
Source text: Inhibition of Proliferation Assay
The confluence value is a surrogate for cell proliferation and growth. The value is expressed as a percent confluence, which represents the fraction of culture dish-surface that is occupied by cells. As the number of cells in the dish increases over time due to proliferation, so will their coverage of that surface increase. Expansion of the cell population on the cell culture-dish surface and confluence have mostly a linear relationship until the cells on the plate surface begin to reach saturation or maximum density.
Confluence is determined based on image analysis. Image based software can identify objects in the image field base on changes to pixel density in a grey scale image. The software can then assign a mask to those pixels within the object. Objects can be ‘gated’ out based on size and shape. To determine cell confluence, images of cells are first masked as objects. The surface area of the image that is masked is measured and compared to the total surface area of the culture dish surface to obtain a percent confluence.
MDA-231 cancer cells were obtained from ATCC. Cells were cultured in Dulbecco's Modified Eagle Medium (DMEM) supplemented with 10% Fetal Bovine Serum (FBS), 2 mM Glutamax, 1 mM Non Essential Amino Acid (NEAA) solution and 1 mM sodium pyruvate. […] Final DMSO concentrations were […]. Images were acquired with an IncuCyte Live Cell Imaging microscopy (Essen Bioscience) at every 3 h under cell culture conditions with 10× objective over 4-5 d. Cell confluence was calculated from one field of view per well using the IncuCyte in-built algorithm. Relative confluence values were obtained by normalising each value to the time zero value in each sample.

With `C[C@H]1c2cccc(O)c2C(=O)C2=C(O)[C@]3(O)C(=O)C(C(N)=O)=C(O)[C@@H](N(C)C)[C@@H]3[C@@H](O)[C@@H]21` [Doxycycline, reference compound] the “% Confluence” value (concentration 10 μM) was 98.7% and the “% Confluence” value (concentration 50 μM) was 91%.

With `COc1ccc([P+](CCCCCCCCCCCC(=O)Nc2ccc3c(c2O)C(=O)C2=C(O)[C@]4(O)C(=O)C(C(N)=O)=C(O)[C@@H](N(C)C)[C@@H]4[C@@H](O)[C@@H]2[C@H]3C)(c2ccc(OC)cc2)c2ccc(OC)cc2)cc1` [Example 1, (11-{[(5R,5aR,6S,6aR,7S,10aS)-9-carbamoyl-7-(dimethylamino)-1,6,8,10a,11-pentahydroxy-5-methyl-10,12-dioxo-5,5a,6,6a,7,10,10a,12-octahydrotetracen-2-yl]carbamoyl}undecyl)tris(4-methoxyphenyl)phosphonium formate] the “% Confluence” value (concentration 10 μM) was 17%.

`C[C@H]1c2ccc(NC(=O)CCCCCCC[P+](C)(c3ccccc3)c3ccccc3)c(O)c2C(=O)C2=C(O)[C@]3(O)C(=O)C(C(N)=O)=C(O)[C@@H](N(C)C)[C@@H]3[C@@H](O)[C@@H]21.[Cl-]` [Example 2, (7-{[(5R,5aR,6S,6aR,7S,10aS)-9-carbamoyl-7-(dimethylamino)-1,6,8,10a,11-pentahydroxy-5-methyl-10,12-dioxo-5,5a,6,6a,7,10,10a,12-octahydrotetracen-2-yl]carbamoyl}heptyl)(methyl)diphenylphosphonium chloride] was tested, and the “% Confluence” value (concentration 10 μM) was 91.7%.

With `C[C@H]1c2ccc(NC(=O)CCCCCCC[P+](C)(C)c3ccccc3)c(O)c2C(=O)C2=C(O)[C@]3(O)C(=O)C(C(N)=O)=C(O)[C@@H](N(C)C)[C@@H]3[C@@H](O)[C@@H]21.[Cl-]` [Example 3, (7-{[(5R,5aR,6S,6aR,7S,10aS)-9-carbamoyl-7-(dimethylamino)-1,6,8,10a,11-pentahydroxy-5-methyl-10,12-dioxo-5,5a,6,6a,7,10,10a,12-octahydrotetracen-2-yl]carbamoyl}heptyl)dimethylphenylphosphonium chloride] the “% Confluence” value (concentration 10 μM) was 62.5%.

With `C[C@H]1c2ccc(NC(=O)CCCCCCC[P+](C)(C)C)c(O)c2C(=O)C2=C(O)[C@]3(O)C(=O)C(C(N)=O)=C(O)[C@@H](N(C)C)[C@@H]3[C@@H](O)[C@@H]21.[Cl-]` [Example 4, (7-{[(5R,5aR,6S,6aR,7S,10aS)-9-carbamoyl-7-(dimethylamino)-1,6,8,10a,11-pentahydroxy-5-methyl-10,12-dioxo-5,5a,6,6a,7,10,10a,12-octahydrotetracen-2-yl]carbamoyl}heptyl)trimethylphosphonium chloride] the “% Confluence” value (concentration 10 μM) was 111.8%.

In the case of `C[C@H]1c2ccc(NC(=O)CCCCCCCCCCC[P+](C)(c3ccccc3)c3ccccc3)c(O)c2C(=O)C2=C(O)[C@]3(O)C(=O)C(C(N)=O)=C(O)[C@@H](N(C)C)[C@@H]3[C@@H](O)[C@@H]21.[Cl-]` [Example 5, (11-{[(5R,5aR,6S,6aR,7S,10aS)-9-carbamoyl-7-(dimethylamino)-1,6,8,10a,11-pentahydroxy-5-methyl-10,12-dioxo-5,5a,6,6a,7,10,10a,12-octahydrotetracen-2-yl]carbamoyl}undecyl)(methyl)diphenylphosphonium chloride], the “% Confluence” value (concentration 10 μM) is reported as 24.9%.

For `C[C@H]1c2ccc(NC(=O)CCCCCCCCCCC[P+](C)(C)C)c(O)c2C(=O)C2=C(O)[C@]3(O)C(=O)C(C(N)=O)=C(O)[C@@H](N(C)C)[C@@H]3[C@@H](O)[C@@H]21.[Cl-]` [Example 6, (11-{[(5R,5aR,6S,6aR,7S,10aS)-9-carbamoyl-7-(dimethylamino)-1,6,8,10a,11-pentahydroxy-5-methyl-10,12-dioxo-5,5a,6,6a,7,10,10a,12-octahydrotetracen-2-yl]carbamoyl}undecyl)trimethylphosphonium chloride], the “% Confluence” value (concentration 10 μM) was 57.7%.

In the case of `Cc1cccc([P+](CCCCCCCCCCCC(=O)Nc2ccc3c(c2O)C(=O)C2=C(O)[C@]4(O)C(=O)C(C(N)=O)=C(O)[C@@H](N(C)C)[C@@H]4[C@@H](O)[C@@H]2[C@H]3C)(c2cccc(C)c2)c2cccc(C)c2)c1.[Cl-]` [Example 7, (11-{[(5R,5aR,6S,6aR,7S,10aS)-9-carbamoyl-7-(dimethylamino)-1,6,8,10a,11-pentahydroxy-5-methyl-10,12-dioxo-5,5a,6,6a,7,10,10a,12-octahydrotetracen-2-yl]carbamoyl}undecyl)tris(3-methylphenyl)phosphonium chloride], the “% Confluence” value (concentration 10 μM) is reported as 29.4%.

In the case of `C[C@H]1c2ccc(NC(=O)CCCCCCC[P+](c3ccccc3)(c3ccccc3)c3cnn(C)c3)c(O)c2C(=O)C2=C(O)[C@]3(O)C(=O)C(C(N)=O)=C(O)[C@@H](N(C)C)[C@@H]3[C@@H](O)[C@@H]21.[Cl-]` [Example 8, (7-{[(5R,5aR,6S,6aR,7S,10aS)-9-carbamoyl-7-(dimethylamino)-1,6,8,10a,11-pentahydroxy-5-methyl-10,12-dioxo-5,5a,6,6a,7,10,10a,12-octahydrotetracen-2-yl]carbamoyl}heptyl)(1-methyl-1H-pyrazol-4-yl)diphenylphosphonium chloride], the “% Confluence” value (concentration 10 μM) is reported as 45.6%.

In the case of `C[C@H]1c2ccc(NC(=O)CCCCCCCC[P+](c3ccccc3)(c3ccccc3)c3cnn(C)c3)c(O)c2C(=O)C2=C(O)[C@]3(O)C(=O)C(C(N)=O)=C(O)[C@@H](N(C)C)[C@@H]3[C@@H](O)[C@@H]21.[Cl-]` [Example 9, (8-{[(5R,5aR,6S,6aR,7S,10aS)-9-carbamoyl-7-(dimethylamino)-1,6,8,10a,11-pentahydroxy-5-methyl-10,12-dioxo-5,5a,6,6a,7,10,10a,12-octahydrotetracen-2-yl]carbamoyl}octyl)(1-methyl-1H-pyrazol-4-yl)diphenylphosphonium chloride], the “% Confluence” value (concentration 10 μM) is reported as 55.5%.

For `C[C@H]1c2ccc(NC(=O)CCCCCCCCCCC[P+](c3ccccc3)(c3ccccc3)c3cnn(C)c3)c(O)c2C(=O)C2=C(O)[C@]3(O)C(=O)C(C(N)=O)=C(O)[C@@H](N(C)C)[C@@H]3[C@@H](O)[C@@H]21.[Cl-]` [Example 10, (11-{[(5R,5aR,6S,6aR,7S,10aS)-9-carbamoyl-7-(dimethylamino)-1,6,8,10a,11-pentahydroxy-5-methyl-10,12-dioxo-5,5a,6,6a,7,10,10a,12-octahydrotetracen-2-yl]carbamoyl}undecyl)(1-methyl-1H-pyrazol-4-yl)diphenylphosphonium chloride], the “% Confluence” value (concentration 10 μM) was 12.4%.

`C[C@H]1c2ccc(NC(=O)CCCCCCCCC[P+](c3ccccc3)(c3ccccc3)c3cnn(C)c3)c(O)c2C(=O)C2=C(O)[C@]3(O)C(=O)C(C(N)=O)=C(O)[C@@H](N(C)C)[C@@H]3[C@@H](O)[C@@H]21.[Cl-]` [Example 11, (9-{[(5R,5aR,6S,6aR,7S,10aS)-9-carbamoyl-7-(dimethylamino)-1,6,8,10a,11-pentahydroxy-5-methyl-10,12-dioxo-5,5a,6,6a,7,10,10a,12-octahydrotetracen-2-yl]carbamoyl}nonyl)(1-methyl-1H-pyrazol-4-yl)diphenylphosphonium chloride] was tested, and the “% Confluence” value (concentration 10 μM) was 70.1%.

In the case of `C[C@H]1c2ccc(NC(=O)CCCCCCCCCC[P+](c3ccccc3)(c3ccccc3)c3cnn(C)c3)c(O)c2C(=O)C2=C(O)[C@]3(O)C(=O)C(C(N)=O)=C(O)[C@@H](N(C)C)[C@@H]3[C@@H](O)[C@@H]21.[Cl-]` [Example 12, (10-{[(5R,5aR,6S,6aR,7S,10aS)-9-carbamoyl-7-(dimethylamino)-1,6,8,10a,11-pentahydroxy-5-methyl-10,12-dioxo-5,5a,6,6a,7,10,10a,12-octahydrotetracen-2-yl]carbamoyl}decyl)(1-methyl-1H-pyrazol-4-yl)diphenylphosphonium chloride], the “% Confluence” value (concentration 10 μM) is reported as 45.4%.

`CC(C)[P+](CCCCCCCCCCCC(=O)Nc1ccc2c(c1O)C(=O)C1=C(O)[C@]3(O)C(=O)C(C(N)=O)=C(O)[C@@H](N(C)C)[C@@H]3[C@@H](O)[C@@H]1[C@H]2C)(c1ccccc1)c1ccccc1` [Example 13, (11-{[(5R,5aR,6S,6aR,7S,10aS)-9-carbamoyl-7-(dimethylamino)-1,6,8,10a,11-pentahydroxy-5-methyl-10,12-dioxo-5,5a,6,6a,7,10,10a,12-octahydrotetracen-2-yl]carbamoyl}undecyl)diphenyl(propan-2-yl)phosphonium chloride] was tested, and the “% Confluence” value (concentration 10 μM) was 35.1%.
